This note sets out measurements from patent US20260374739A1, “SMALL MOLECULAR WEIGHT CHEMICAL COMPOUND TO ANTAGONIZE EPH-EPHRIN TETRAMERIZATION AND INHIBIT BIDIRECTIONAL SIGNALING” (THE BOARD OF REGENTS OF THE UNIVERSITY OF TEXAS SYSTEM, priority 2022, published 2026).

“Also recorded” adds a separate entry of the source.

The target of one experiment is T1, EphB4-Fc / EB2-His (Mus musculus, UniProt P54761).
T1 construct: soluble mouse EB2-His ectodomain, pulldown
In words: pulldown EB2-His to EphB4-Fc. Format: binding. Particulars: up to 250 μM for A20; listed as A20.

In another experiment the target is T2, EphB2-Fc with EB2-His (Mus musculus, UniProt P54763).
T2 construct: soluble EphB ectodomains conjugated to Fc from R&D Systems; mouse EB2-His residues 18-232; purchased R&D Systems (EphB-Fc); Sino Biologicals (EphrinB-His)
In words: Alpha assay EphB2-EB2. The class given is binding. How it is done: FIG. 5D depicts results from an alpha assay using EphB2-Fc or EphB4-Fc with EB2-His and increasing A20 concentrations to calculate IC50 determination (~10 μM, similar to that found in FIG. 5C).
Protein interaction assays were developed using soluble EphB ectodomains conjugated to Fc from R&D Systems (e.g., rat EphB1-Fc residues 18-538, which is 99.4% identical to human) and EphrinB ectodomains conjugated to His from Sino Biologicals (e.g., mouse EB2-His residues 18-232, which is 97.7% identical to human). Titrating concentrations of the EphB1-Fc ectodomain (or unconjugated Fc protein as negative control) was added with titrating amounts of the three different EphrinB ectodomains (EB1-His, EB2-His, or EB3-His) with 125 ng each of the Protein A donor, anti-6×-His acceptor beads, 2% DMSO, and 1× HiBlock buffer (all from PerkinElmer) in 384 well plates, and after 3 hr incubation at RT were read in an Envision Multilabel Reader 2102. […] No signal above background (<1,500) was detected for wells that contained an Fc control protein and the EB-His proteins or just the EphB1-Fc protein and no EB-His protein.
A20, E13, and other compounds from the top 32 hits were then characterized in pulldown assays. […]

Experiment [1] concerns EphB2 tyrosine kinase, Cos1 cells. Kind of experiment: EphB2 kinase activation by pre-clustered EB2-Fc in Cos1 cells, immunoblot. Format: cell-based. Conditions: 30 min, listed as A20. How it is done:
To assess if A20 would reduce the ability of EphrinB2 to stimulate activation of the EphB tyrosine kinase domain in live cells, Cos1 cells that express endogenous EphB2 were exposed to pre-clustered EB2-Fc ectodomains in the presence or absence of A20 for 30 min. […] Stimulated cells were fixed on the coverslip and subjected to immunofluorescence (IF) with anti-Fc antibodies to detect ligand protein bound to receptor, which leads to formation of circular Eph-Ephrin tetramers that then cluster into large obvious spots on the cell surface by lateral migration through the plasma membrane and also contain anti-phosphotyrosine signal indicating activation of the receptor's kinase domain.
On the technique in general: A western blot detects proteins with antibodies after separation by electrophoresis.

The next experiment has as its target EphrinB1-EphB2 (Homo sapiens, UniProt P29323). Kind of experiment: Octet, immobilized human EphrinB1 binding to human EphB2. How it is done: Studies were conducted to confirm that A20 chemicals can effectively target the human Eph/Ephrin proteins. Octet system was used to first characterize the biophysical interactions of the human B class Eph and Ephrin proteins, and then was tested to assess how A20 may disrupt the interactions. Since the human and rodent proteins are highly conserved, and essentially identical, with EphB2 sharing 99.5% identity between human and mouse, with only 5 of ~1,000 amino acids different, any species-specific differences were not anticipated. Therefore, commercially available human EphrinB1-Fc (EB1), EphrinB2-Fc (EB2), and EphrinB3-Fc (EB3) ectodomain proteins were sparsely immobilized onto biosensors and then exposed to 50 nM of soluble human EphB1-His, EphB2-His, and EphB4-His ectodomains for 800 sec association and 1,000 sec dissociation steps with a total of nine different interactions analyzed. In the absence of A20 chemical, the immobilized human EphrinB proteins bound to their appropriate human EphB target proteins; with EphrinB1 only bound EphB1 and EphB2, EphrinB2 bound all three EphB1, EphB2, and EphB4, and EphrinB3 only bound EphB1 and EphB2 (FIG. 19A-19B).
Addition of compound also altered dissociation kinetics. […] This is referred to as the “unsurmountable” component of the Eph-Ephrin interaction (FIG. 21C). Additionally, AUC data was graphed for these runs (FIG. 21D). […]
Background: BLI is a label-free optical method that tracks binding on a fibre tip over time.

The next experiment deals with T3, EphB1-EB2 (Rattus norvegicus, UniProt P09759).
T3 construct: mouse (Mus musculus) EB2-His ectodomain (Sino Biologicals), ELISA
Kind of experiment: ELISA EB2-His binding to immobilized EphB1-Fc. Also noted: species or system mouse EB2. Particulars: 5 μM. How it is done: The 32 hits were then subjected to ELISA in which EphB1-Fc was first immobilized in 96 well Protein A plates, then soluble EB2-His was added with hit compound in triplicate, again at 5 μM. After 2 hr at RT to allow EB2-His binding to EphB1-Fc, wells were washed, incubated with nickel-activated horseradish peroxidase (HisProbe-HRP) to detect bound EB2-His protein, washed, and then incubated with ELISA Pico Chemiluminescent Substrate (both from Thermo-Fisher) before being read in a luminometer. A single-protein counter ELISA using the dual-tagged EphB2-His-Fc ectodomain protein was also run. […] For simplicity, we call this compound A20.
In general terms: An ELISA detects its analyte on a solid surface through an enzyme-linked reagent.

In experiment [2] the target is pre-formed EphrinB2-EphB2 tetramer (Homo sapiens, UniProt P29323). Kind of experiment: Octet competition of pre-existing tetramers, human EphrinB2-EphB2. The class given is binding. Particulars: 2, 10, 50 μM. How it is done:
Biophysical studies were conducted to explore if A20 is able to disrupt pre-existing stable tetramers, focusing on interactions of immobilized human EphrinB2 binding to soluble human EphB1 and EphB2, and immobilized mouse EphB2 binding to mouse EphrinB2 (FIGS. 29A-29C). In these experiments, sensor-chip immobilized proteins were first exposed to 50 nM of their soluble target protein for an 800 sec association step and 1,000 sec dissociation step to generate pre-formed stable tetramers, which were then subjected to a 1,000 sec competition step that included either 0, 2, 10, or 50 μM concentrations of A20 salt compound. […] The ability of A20 to disrupt pre-existing tetramers was most pronounced for human EB2-EphB2 and cognate murine EphB2-EB2 experiments and indicated a gradual ongoing dose-dependent decline in tetramers throughout the 1,000 sec competition step (and beyond if allowed) and irrespective of whether the human EphrinB2 or murine EphB2 was the immobilized protein.

T1 sequence (P54761 16-539 limits assumed): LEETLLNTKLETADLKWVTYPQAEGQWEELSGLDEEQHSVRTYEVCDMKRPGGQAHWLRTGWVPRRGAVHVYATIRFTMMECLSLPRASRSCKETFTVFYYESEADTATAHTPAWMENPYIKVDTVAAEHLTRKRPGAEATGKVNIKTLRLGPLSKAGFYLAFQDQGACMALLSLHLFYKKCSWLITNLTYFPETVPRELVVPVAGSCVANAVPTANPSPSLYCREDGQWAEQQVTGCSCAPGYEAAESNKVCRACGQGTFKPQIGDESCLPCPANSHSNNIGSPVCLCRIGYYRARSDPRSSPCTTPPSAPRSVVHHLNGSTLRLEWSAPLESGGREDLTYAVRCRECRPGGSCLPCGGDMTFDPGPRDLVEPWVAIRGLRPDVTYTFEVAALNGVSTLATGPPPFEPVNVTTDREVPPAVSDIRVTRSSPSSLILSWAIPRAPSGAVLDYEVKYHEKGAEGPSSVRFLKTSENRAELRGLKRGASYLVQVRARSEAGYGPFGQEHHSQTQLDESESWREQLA
EphrinB1-EphB2, sequence (P29323 19-543 limits assumed): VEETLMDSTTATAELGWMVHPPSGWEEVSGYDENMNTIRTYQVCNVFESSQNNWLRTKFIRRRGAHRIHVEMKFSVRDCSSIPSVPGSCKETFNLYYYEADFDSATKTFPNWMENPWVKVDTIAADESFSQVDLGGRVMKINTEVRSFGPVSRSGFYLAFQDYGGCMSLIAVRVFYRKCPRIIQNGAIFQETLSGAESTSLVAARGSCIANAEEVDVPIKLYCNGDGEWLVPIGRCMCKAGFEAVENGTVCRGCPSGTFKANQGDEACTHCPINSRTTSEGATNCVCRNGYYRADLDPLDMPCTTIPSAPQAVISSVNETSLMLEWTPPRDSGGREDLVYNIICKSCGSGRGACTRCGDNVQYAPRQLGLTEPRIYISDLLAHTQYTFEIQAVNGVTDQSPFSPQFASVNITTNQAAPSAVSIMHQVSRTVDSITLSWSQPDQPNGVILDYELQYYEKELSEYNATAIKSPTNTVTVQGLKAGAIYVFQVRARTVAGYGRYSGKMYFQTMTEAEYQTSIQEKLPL
pre-formed EphrinB2-EphB2 tetramer, sequence (P29323 19-543 limits assumed): as above
T3 sequence (P09759 18-538): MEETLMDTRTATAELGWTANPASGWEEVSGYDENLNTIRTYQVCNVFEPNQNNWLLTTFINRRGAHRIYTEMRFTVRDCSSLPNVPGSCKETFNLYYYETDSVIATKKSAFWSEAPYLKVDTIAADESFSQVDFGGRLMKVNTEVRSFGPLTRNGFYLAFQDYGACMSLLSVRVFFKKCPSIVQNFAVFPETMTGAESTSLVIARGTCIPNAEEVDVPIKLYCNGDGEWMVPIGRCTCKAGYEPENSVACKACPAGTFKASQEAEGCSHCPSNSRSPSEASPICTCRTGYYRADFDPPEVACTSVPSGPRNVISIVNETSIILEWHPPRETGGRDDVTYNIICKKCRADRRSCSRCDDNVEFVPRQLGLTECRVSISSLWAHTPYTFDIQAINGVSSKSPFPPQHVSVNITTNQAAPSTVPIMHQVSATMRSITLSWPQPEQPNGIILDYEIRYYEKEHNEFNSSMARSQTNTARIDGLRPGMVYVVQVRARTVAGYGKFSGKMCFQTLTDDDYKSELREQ
T2 sequence (P54763 19-543 limits assumed): as the sequence (P29323 19-543 limits assumed) above, with S104L, S154N, Q520K counted along it

As usually defined, the IC50 is the concentration that gives 50% inhibition. A lower IC50 goes with higher potency. As to `Oc1c(Br)cc(CN2CCOCC2)c2cccnc12` [Compound 5, 7-bromo-5-(morpholinomethyl)quinolin-8-ol], on EphB4-Fc / EB2-His, the “pulldown EphB4-Fc binding to EB2-His” value was “only a weak ability to prevent EphB4-Fc from binding to EB2-His; also recorded: only weak/poor ability to antagonize soluble EB2-His binding”. In addition, the IC50 on EphB2-Fc with EB2-His was ~10 µM. For the same molecule, in experiment [1], the “EphB2 kinase activity” value is recorded as “caused a dose-dependent reduction in EphB2 kinase activity; also recorded: antagonizes EB2 stimulation of EphB2 catalytic activity”. Further, on EphrinB1-EphB2 (EB1-EphB2, A20, read-out: reduction of tetramers), the inhibition at 1 µM is ~45%. Moreover, the IC (maximum) at EphrinB1-EphB2 (read-out: concentration producing maximum inhibition) was 1 µM. Besides, the “ELISA signal” value at EphB1-EB2 is “reduced signal in the two-protein ELISA”. Besides, the “competition of pre-formed tetramers” value in experiment [2] is on record as “able to compete away in a dose-dependent manner a significant amount of the stable pre-formed tetramer complexes”.
